The results in this text go back to US9321760B2 (Merck Patent GmbH, priority 2011, dated 2016).

The target of this assay is P70S6K (T412E mutant) (Homo sapiens (Human), UniProt P23443, T412E). Briefly: P70S6K enzyme assay. The format is biochemical. As to conditions: 3 nM P70S6K T412E mutant, 24 μM ATP, 1 μM FITC-AHA-AKRRRLSSLRA-OH substrate peptide, 90 min at 25° C. The method in brief: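 IC50s come from mobility-shift separation of phospho-product from FITC-AHA-AKRRRLSSLRA-OH substrate (1 μM) after the reaction was quenched with 10 mM EDTA. The reaction used 3 nM T412E-mutant enzyme and 24 μM ATP, running 90 min at 25° C in 100 mM Hepes pH 7.5 buffer.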
Chain of P70S6K (T412E mutant) (P23443 whole entry T412E): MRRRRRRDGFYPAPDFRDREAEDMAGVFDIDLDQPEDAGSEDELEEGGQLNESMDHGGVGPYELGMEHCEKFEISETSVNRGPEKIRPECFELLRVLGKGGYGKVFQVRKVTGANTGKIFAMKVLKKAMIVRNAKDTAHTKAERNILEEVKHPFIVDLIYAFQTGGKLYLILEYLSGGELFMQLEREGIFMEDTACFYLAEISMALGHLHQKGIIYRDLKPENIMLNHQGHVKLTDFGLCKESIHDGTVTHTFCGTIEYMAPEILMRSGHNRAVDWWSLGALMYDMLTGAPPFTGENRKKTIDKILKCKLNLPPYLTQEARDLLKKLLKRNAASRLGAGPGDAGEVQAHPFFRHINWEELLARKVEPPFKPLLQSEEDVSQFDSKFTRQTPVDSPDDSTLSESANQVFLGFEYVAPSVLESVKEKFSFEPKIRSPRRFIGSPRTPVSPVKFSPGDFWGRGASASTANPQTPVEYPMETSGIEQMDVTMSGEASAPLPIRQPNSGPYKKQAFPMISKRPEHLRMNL

The term IC50 denotes the concentration that gives 50% inhibition. The compound `CC[C@H](NC(=O)C1(N)CCN(c2ncnc(N)c2C(N)=O)CC1)c1ccc(Cl)cc1` [Example 245, 4-Amino-6-{4-amino-4-[(S)-1-(4-chloro-phenyl)-propylcarbamoyl]-piperidin-1-yl}-pyrimidine-5-carboxylic acid amide] registered an IC50 of 2400 nM. In other words, the single-digit micromolar range.

`COC[C@H](NC(=O)C1(N)CCN(c2ncnc(N)c2C(N)=O)CC1)c1ccc(Cl)cc1` [Example 246, 4-Amino-6-{4-amino-4-[(R)-1-(4-chloro-phenyl)-2-methoxy-ethylcarbamoyl]-piperidin-1-yl}-pyrimidine-5-carboxylic acid amide] had a 50% inhibitory concentration (IC50) of 5000 nM.

With `NC(=O)c1c(N)ncnc1N1CCC(N)(C(=O)N[C@@H](CCO)c2ccc(Cl)cc2)CC1` [Example 247], the IC50 stood at 3600 nM.

On to `Nc1ncnc(N2CC[C@@](N)(CNC(=O)c3ccc(F)cc3F)C2)c1-c1ccc(F)cc1` [Example 248, N—{(R)-3-Amino-1-[6-amino-5-(4-fluoro-phenyl)-pyrimidin-4-yl]-pyrrolidin-3-ylmethyl}-2,4-difluoro-benzamide], for which half-maximal inhibition (IC50) required 290 nM.
